Each structure is given as a SMILES string. Some results are limits rather than exact numbers.

In one test the target is SMYD3 (Homo sapiens (Human), UniProt Q9H7B4). As to the kind of experiment: SMYD3 biochemical assay (SMYD3 enzyme assay on MEKK2 protein substrate, 3H-SAM scintillation proximity assay). As to conditions: Table 1A; average of n = 1 to n = 50; read-out: SMYD3 Biochem IC50. The method, boiled down: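 Detection used scintillation proximity beads to capture ³H-methylated GST-MEKK2 after quench with 100 uM final cold SAM. The reaction was started by SAM/MEKK2 addition after a 30 min RT compound–enzyme preincubation. Enzyme was tag-free full-length human SMYD3 from E. coli, in buffer of 25 mM Tris-Cl pH 8.0, 1 mM TCEP, 0.005% BSG, 0.005% Tween 20.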
SMYD3, sequence (Q9H7B4 whole entry): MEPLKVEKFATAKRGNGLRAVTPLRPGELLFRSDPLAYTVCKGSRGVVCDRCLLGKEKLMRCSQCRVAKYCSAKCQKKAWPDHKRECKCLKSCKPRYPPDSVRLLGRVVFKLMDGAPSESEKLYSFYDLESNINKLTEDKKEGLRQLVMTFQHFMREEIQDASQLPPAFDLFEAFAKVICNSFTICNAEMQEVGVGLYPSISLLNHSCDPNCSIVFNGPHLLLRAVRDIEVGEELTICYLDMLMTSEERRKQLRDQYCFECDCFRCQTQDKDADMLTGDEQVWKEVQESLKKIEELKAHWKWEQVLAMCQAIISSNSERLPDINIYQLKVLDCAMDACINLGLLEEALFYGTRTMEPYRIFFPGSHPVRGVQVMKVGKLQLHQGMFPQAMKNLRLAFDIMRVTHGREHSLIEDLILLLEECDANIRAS
Regarding `NCCC(=O)N1CCC(NC(=O)c2nnc[nH]2)CC1` [compound 556, N-(1-(3-aminopropanoyl)piperidin-4-yl)-4H-1,2,4-triazole-3-carboxamide], the half-maximal inhibitory concentration (IC50) was > 50 µM.

Consider `N[C@H]1CC[C@H](NC(=O)c2cc(Cl)[nH]n2)CC1` [compound 545, N-((1r,4r)-4-aminocyclohexyl)-5-chloro-1H-pyrazole-3-carboxamide], for which the IC50 was > 50 µM.

Turning to `NCCC(=O)N[C@H]1CC[C@H](NC(=O)c2n[nH]c(=O)[nH]2)CC1` [compound 530, N-((1r,4r)-4-(3-aminopropanamido)cyclohexyl)-5-oxo-4,5-dihydro-1H-1,2,4-triazole-3-carboxamide], the IC50 is > 50 µM.

Staying with this test, now noted: read-out: SMYD3 Biochem IC50.
For `N[C@H]1CC[C@H](NC(=O)c2ncc[nH]2)CC1` [compound 502, N-((1r,4r)-4-aminocyclohexyl)-1H-imidazole-2-carboxamide], the IC50 is > 100 µM.

As for `Cc1cccc(Cn2nc(C(C)(C)C)cc2C(=O)N[C@H]2CC[C@H](N)CC2)c1` [compound 341, N-((1r,4r)-4-aminocyclohexyl)-3-(tert-butyl)-1-(3-methylbenzyl)-1H-pyrazole-5-carboxamide], the IC50 is > 100 µM.

As to `CC1=NN(c2ccc(C(=O)N[C@H]3CC[C@H](N)CC3)cc2)C(=O)C1` [compound 403, N-((1r,4r)-4-aminocyclohexyl)-4-(3-methyl-5-oxo-4,5-dihydro-1H-pyrazol-1-yl)benzamide], the IC50 is > 100 µM.

Take `NCCC(=O)N[C@H]1CC[C@H](NC(=O)c2ccc(Cl)cc2C(F)(F)F)CC1` [compound 439, N-((1r,4r)-4-(3-aminopropanamido)cyclohexyl)-4-chloro-2-(trifluoromethyl)benzamide]: the IC50 is > 100 µM.

For `N[C@H]1CC[C@H](NC(=O)c2cncnc2O)CC1` [compound 493, N-((1r,4r)-4-aminocyclohexyl)-4-hydroxypyrimidine-5-carboxamide], the half-inhibitory concentration (IC50) is > 50 µM.

Turning to `COc1cccc(C(=O)N[C@H]2CC[C@H](NC(=O)CCN)CC2)n1` [compound 353, N-((1r,4r)-4-(3-aminopropanamido)cyclohexyl)-6-methoxypicolinamide], the IC50 is > 100 µM.

For `CC(NC(=O)Cn1ccnc1)C1CCN(C(=O)[C@H](C)N)CC1` (stereo partly drawn) [compound 316, N-(1-(1-(L-alanyl)piperidin-4-yl)ethyl)-2-(1H-imidazol-1-yl)acetamide], the IC50 is > 100 µM.

In the case of `Cc1c(C(=O)NC(C)C2CCN(C(=O)[C@H](C)N)CC2)nnn1-c1ccccc1` (stereo partly drawn) [compound 217, N-(1-(1-(L-alanyl)piperidin-4-yl)ethyl)-5-methyl-1-phenyl-1H-1,2,3-triazole-4-carboxamide], the IC50 was > 100 µM.

Consider `N[C@H]1CC[C@H](NC(=O)c2cncs2)CC1` [compound 359, N-((1r,4r)-4-aminocyclohexyl)thiazole-5-carboxamide], for which the concentration for half-maximal inhibition (IC50) is > 100 µM.

In the case of `Cn1ncnc1C(=O)N[C@H]1CC[C@H](N)CC1` [compound 507, N-((1r,4r)-4-aminocyclohexyl)-1-methyl-1H-1,2,4-triazole-5-carboxamide], the IC50 is > 100 µM.

For `NCCC(=O)N[C@H]1CC[C@H](NC(=O)c2cccnc2O)CC1` [compound 410, N-((1r,4r)-4-(3-aminopropanamido)cyclohexyl)-2-hydroxynicotinamide], the IC50 amounted to 44.5 µM.

For the molecule `CC(NC(=O)c1ccc2nc[nH]c2c1)C1CCN(C(=O)[C@H](C)N)CC1` (stereo partly drawn) [compound 193, N-(1-(1-(L-alanyl)piperidin-4-yl)ethyl)-1H-benzo[d]imidazole-6-carboxamide], the concentration for half-maximal inhibition (IC50) is > 100 µM.

In the case of `COc1cnc(C(=O)N[C@H]2CC[C@H](N)CC2)cn1` [compound 384, N-((1r,4r)-4-aminocyclohexyl)-5-methoxypyrazine-2-carboxamide], the IC50 is > 100 µM.

As to `N[C@H]1CC[C@H](NC(=O)c2ccc3nonc3c2)CC1` [compound 287, N-((1r,4r)-4-aminocyclohexyl)benzo[c][1,2,5]oxadiazole-5-carboxamide], the half-inhibitory concentration (IC50) is > 100 µM.

Turning to `CC(NC(=O)c1cc(C(C)(C)C)nn1C)C1CCN(C(=O)[C@H](C)N)CC1` (stereo partly drawn) [compound 260, N-(1-(1-(L-alanyl)piperidin-4-yl)ethyl)-3-(tert-butyl)-1-methyl-1H-pyrazole-5-carboxamide], the IC50 is > 100 µM.

With `N[C@H]1CC[C@H](NC(=O)c2cc3cccc(O)c3cc2O)CC1` [compound 460, N-((1r,4r)-4-aminocyclohexyl)-3,5-dihydroxy-2-naphthamide], the IC50 turned out to be 20.7 µM.

`NC1CCC(NC(=O)c2c[nH]cn2)CC1` (stereo not shown) [compound 517, N-(4-aminocyclohexyl)-1H-imidazole-4-carboxamide]: the concentration for half-maximal inhibition (IC50) was > 50 µM.

`N[C@H]1CC[C@H](NC(=O)c2nc3ccccc3s2)CC1` [compound 367, N-((1r,4r)-4-aminocyclohexyl)benzo[d]thiazole-2-carboxamide]: the IC50 was > 100 µM.

The same test, now with this note: read-out: SMYD3 Biochem IC50 (μM)*.
On to `CC(NC(=O)c1ccc2oc(=O)ccc2c1)C1CCN(C(=O)[C@H](C)N)CC1` (stereo partly drawn) [compound 95, N-(1-(1-(L-alanyl)piperidin-4-yl)ethyl)-2-oxo-2H-chromene-6-carboxamide], for which the half-inhibitory concentration (IC50) worked out at 150 µM.

For `CN(C)Cc1ccc(C(=O)N[C@H]2CC[C@H](N)CC2)o1` [compound 79, N-((1r,4r)-4-aminocyclohexyl)-5-((dimethylamino)methyl)furan-2-carboxamide], the concentration for half-maximal inhibition (IC50) was found to be 38.9 µM.

For the molecule `CCc1cc(C(=O)N[C@H]2CC[C@H](N)CC2)n(C)n1` [compound 37, N-((1r,4r)-4-aminocyclohexyl)-3-ethyl-1-methyl-1H-pyrazole-5-carboxamide], the IC50 worked out at 59.9 µM.

Turning to `C[C@H](N)C(=O)N1CCC(O)(CNC(=O)c2ccc3c(c2)CC(=O)N3)CC1` [compound 112, N-((1-(L-alanyl)-4-hydroxypiperidin-4-yl)methyl)-2-oxoindoline-5-carboxamide], the IC50 is 3.04 µM.

With `CCc1ccc(C(=O)NC(c2ccccc2)C2CCNCC2)s1` (stereo not shown) [compound 55, 5-ethyl-N-(phenyl(piperidin-4-yl)methyl)thiophene-2-carboxamide], the IC50 amounted to 116 µM.

Turning to `Cc1n[nH]c(C)c1C(=O)N[C@H]1CC[C@H](NC(=O)CCN)CC1` [compound 181, N-((1r,4r)-4-(3-aminopropanamido)cyclohexyl)-3,5-dimethyl-1H-pyrazole-4-carboxamide], the half-maximal inhibitory concentration (IC50) was > 100 µM.

Consider `CCOC(=O)C1(CNC(=O)c2ccc3c(c2)CC(=O)N3)CCN(C(=O)[C@H](C)N)CC1` [compound 132, ethyl 1-(L-alanyl)-4-((2-oxoindoline-5-carboxamido)methyl)piperidine-4-carboxylate], for which the IC50 was 0.94 µM.

In the case of `N[C@H]1CC[C@H](NC(=O)c2cccc3c2OCC(=O)N3)CC1` [compound 115, N-((1r,4r)-4-aminocyclohexyl)-3-oxo-3,4-dihydro-2H-benzo[b][1,4]oxazine-8-carboxamide], the IC50 was 61.2 µM.

As to `CCc1ccc(C(=O)N[C@H]2CC[C@H](N)CC2)s1` [compound 54, N-((1r,4r)-4-aminocyclohexyl)-5-ethylthiophene-2-carboxamide], the IC50 was 49.9 µM.

With `N[C@H]1CC[C@H](NC(=O)c2ccc3ncsc3c2)CC1` [compound 118, N-((1r,4r)-4-aminocyclohexyl)benzo[d]thiazole-6-carboxamide], the IC50 came to 139 µM.

In general, IC50 refers to the point on the concentration scale where inhibition reaches its midpoint.

These data come from US10266526B2, “Substituted 1,2,3-triazoles as SMYD inhibitors for treating cancer” (EPIZYME, INC., priority 2014, dated 2019).
